Paper PMC12132946, “Isoflurane activates the type 1 ryanodine receptor to induce anesthesia in mice” (PLOS Biology, 2025)

What was measured:
[1] = molecular target: T1, type 1 ryanodine receptor (RyR1) (Oryctolagus cuniculus, UniProt P11716); assay: intracellular calcium assay in HEK […] stable cell lines; selective over M4000F, RyR2, RyR3; format: cell-based; design: full-length rabbit RyR1(WT)
[2] = molecular target: T1, type 1 ryanodine receptor (RyR1); assay: intracellular calcium assay in HEK […] stable cell line; compared with M4000F; format: cell-based; design: full-length rabbit RyR1(WT)
[3] = molecular target: T1, type 1 ryanodine receptor (RyR1); assay: intracellular calcium assay in HEK […] cells with RyR1 WT and point mutants; format: cell-based; design: full-length rabbit RyR1
[4] = molecular target: T1, type 1 ryanodine receptor (RyR1); assay: cell-based; design: full-length rabbit RyR1; species or system HEK 293; fluorescent calcium indicator assay, peak Fmax/F0, tetracycline-induced RyR1 expression, 384-well plate
Method: There are three isoforms of RyRs in mammals (RyR1, RyR2, and RyR3). To systematically examine the pharmacological properties of each isoform, we used HEK 293 cell lines that express rabbit isoforms under tetracycline regulation. These cells were seeded in a 384-well plate and subjected to an assay in which the intracellular calcium levels were measured using a fluorescent calcium indicator upon drug administration (Fig 1B and 1C). While caffeine is a stimulant that antagonizes the adenosine receptors (IC50s on adenosine receptors are ~10 μM), it is also a typical agonist of RyRs activating all isoforms at higher dosages. Caffeine administration caused dose-dependent increases in intracellular calcium levels depending on the tetracycline-mediated expression of each isoform (Figs 1D–1F and S1A). We observed that, while caffeine causes calcium elevation in the nonexpressed controls, most likely due to the presence of endogenous RyRs in HEK 293 cells, the distinct signals in the expressed conditions indicate that each isoform is successfully expressed as functional channels. Supplementary file pbio.3003172.s001.pdf: S1 Fig Increased intracellular calcium by isoflurane is derived from intracellular calcium stores. […] Each agent was given after measuring the baseline fluorescence for 10 s, as indicated by arrows. […]

[5] = molecular target: T1, type 1 ryanodine receptor (RyR1); assay: intracellular calcium assay in HEK […] cells; selectivity over M4000F; format: cell-based; design: full-length rabbit RyR1
[6] = molecular target: T1, type 1 ryanodine receptor (RyR1); assay: intracellular calcium assay in HEK […] cells; caffeine-site point mutants; format: cell-based; design: full-length rabbit RyR1
[7] = molecular target: T1, type 1 ryanodine receptor (RyR1); assay: intracellular calcium assay in HEK […] stable cell line; format: cell-based; design: full-length rabbit RyR1
mouse RyR1(WT) = molecular target: T2, mouse RyR1(WT) (Mus musculus, UniProt E9PZQ0); assay: intracellular calcium assay in HEK […] cells; response lost in M4003F; format: cell-based
T2 construct: full-length mouse RyR1

[8] = molecular target: T1, type 1 ryanodine receptor (RyR1); assay: intracellular calcium (Cal-520) assay in HEK […] cells with tetracycline-induced RyR1; chimeras and point mutants; format: cell-based; design: full-length rabbit RyR1; RyR1 Q3889-S4213 necessary and sufficient for the response
[9] = molecular target: T1, type 1 ryanodine receptor (RyR1); assay: intracellular calcium assay in HEK […] stable cell line; response lost in M4000F; format: cell-based; design: full-length rabbit RyR1

T1 sequence (P11716 whole entry): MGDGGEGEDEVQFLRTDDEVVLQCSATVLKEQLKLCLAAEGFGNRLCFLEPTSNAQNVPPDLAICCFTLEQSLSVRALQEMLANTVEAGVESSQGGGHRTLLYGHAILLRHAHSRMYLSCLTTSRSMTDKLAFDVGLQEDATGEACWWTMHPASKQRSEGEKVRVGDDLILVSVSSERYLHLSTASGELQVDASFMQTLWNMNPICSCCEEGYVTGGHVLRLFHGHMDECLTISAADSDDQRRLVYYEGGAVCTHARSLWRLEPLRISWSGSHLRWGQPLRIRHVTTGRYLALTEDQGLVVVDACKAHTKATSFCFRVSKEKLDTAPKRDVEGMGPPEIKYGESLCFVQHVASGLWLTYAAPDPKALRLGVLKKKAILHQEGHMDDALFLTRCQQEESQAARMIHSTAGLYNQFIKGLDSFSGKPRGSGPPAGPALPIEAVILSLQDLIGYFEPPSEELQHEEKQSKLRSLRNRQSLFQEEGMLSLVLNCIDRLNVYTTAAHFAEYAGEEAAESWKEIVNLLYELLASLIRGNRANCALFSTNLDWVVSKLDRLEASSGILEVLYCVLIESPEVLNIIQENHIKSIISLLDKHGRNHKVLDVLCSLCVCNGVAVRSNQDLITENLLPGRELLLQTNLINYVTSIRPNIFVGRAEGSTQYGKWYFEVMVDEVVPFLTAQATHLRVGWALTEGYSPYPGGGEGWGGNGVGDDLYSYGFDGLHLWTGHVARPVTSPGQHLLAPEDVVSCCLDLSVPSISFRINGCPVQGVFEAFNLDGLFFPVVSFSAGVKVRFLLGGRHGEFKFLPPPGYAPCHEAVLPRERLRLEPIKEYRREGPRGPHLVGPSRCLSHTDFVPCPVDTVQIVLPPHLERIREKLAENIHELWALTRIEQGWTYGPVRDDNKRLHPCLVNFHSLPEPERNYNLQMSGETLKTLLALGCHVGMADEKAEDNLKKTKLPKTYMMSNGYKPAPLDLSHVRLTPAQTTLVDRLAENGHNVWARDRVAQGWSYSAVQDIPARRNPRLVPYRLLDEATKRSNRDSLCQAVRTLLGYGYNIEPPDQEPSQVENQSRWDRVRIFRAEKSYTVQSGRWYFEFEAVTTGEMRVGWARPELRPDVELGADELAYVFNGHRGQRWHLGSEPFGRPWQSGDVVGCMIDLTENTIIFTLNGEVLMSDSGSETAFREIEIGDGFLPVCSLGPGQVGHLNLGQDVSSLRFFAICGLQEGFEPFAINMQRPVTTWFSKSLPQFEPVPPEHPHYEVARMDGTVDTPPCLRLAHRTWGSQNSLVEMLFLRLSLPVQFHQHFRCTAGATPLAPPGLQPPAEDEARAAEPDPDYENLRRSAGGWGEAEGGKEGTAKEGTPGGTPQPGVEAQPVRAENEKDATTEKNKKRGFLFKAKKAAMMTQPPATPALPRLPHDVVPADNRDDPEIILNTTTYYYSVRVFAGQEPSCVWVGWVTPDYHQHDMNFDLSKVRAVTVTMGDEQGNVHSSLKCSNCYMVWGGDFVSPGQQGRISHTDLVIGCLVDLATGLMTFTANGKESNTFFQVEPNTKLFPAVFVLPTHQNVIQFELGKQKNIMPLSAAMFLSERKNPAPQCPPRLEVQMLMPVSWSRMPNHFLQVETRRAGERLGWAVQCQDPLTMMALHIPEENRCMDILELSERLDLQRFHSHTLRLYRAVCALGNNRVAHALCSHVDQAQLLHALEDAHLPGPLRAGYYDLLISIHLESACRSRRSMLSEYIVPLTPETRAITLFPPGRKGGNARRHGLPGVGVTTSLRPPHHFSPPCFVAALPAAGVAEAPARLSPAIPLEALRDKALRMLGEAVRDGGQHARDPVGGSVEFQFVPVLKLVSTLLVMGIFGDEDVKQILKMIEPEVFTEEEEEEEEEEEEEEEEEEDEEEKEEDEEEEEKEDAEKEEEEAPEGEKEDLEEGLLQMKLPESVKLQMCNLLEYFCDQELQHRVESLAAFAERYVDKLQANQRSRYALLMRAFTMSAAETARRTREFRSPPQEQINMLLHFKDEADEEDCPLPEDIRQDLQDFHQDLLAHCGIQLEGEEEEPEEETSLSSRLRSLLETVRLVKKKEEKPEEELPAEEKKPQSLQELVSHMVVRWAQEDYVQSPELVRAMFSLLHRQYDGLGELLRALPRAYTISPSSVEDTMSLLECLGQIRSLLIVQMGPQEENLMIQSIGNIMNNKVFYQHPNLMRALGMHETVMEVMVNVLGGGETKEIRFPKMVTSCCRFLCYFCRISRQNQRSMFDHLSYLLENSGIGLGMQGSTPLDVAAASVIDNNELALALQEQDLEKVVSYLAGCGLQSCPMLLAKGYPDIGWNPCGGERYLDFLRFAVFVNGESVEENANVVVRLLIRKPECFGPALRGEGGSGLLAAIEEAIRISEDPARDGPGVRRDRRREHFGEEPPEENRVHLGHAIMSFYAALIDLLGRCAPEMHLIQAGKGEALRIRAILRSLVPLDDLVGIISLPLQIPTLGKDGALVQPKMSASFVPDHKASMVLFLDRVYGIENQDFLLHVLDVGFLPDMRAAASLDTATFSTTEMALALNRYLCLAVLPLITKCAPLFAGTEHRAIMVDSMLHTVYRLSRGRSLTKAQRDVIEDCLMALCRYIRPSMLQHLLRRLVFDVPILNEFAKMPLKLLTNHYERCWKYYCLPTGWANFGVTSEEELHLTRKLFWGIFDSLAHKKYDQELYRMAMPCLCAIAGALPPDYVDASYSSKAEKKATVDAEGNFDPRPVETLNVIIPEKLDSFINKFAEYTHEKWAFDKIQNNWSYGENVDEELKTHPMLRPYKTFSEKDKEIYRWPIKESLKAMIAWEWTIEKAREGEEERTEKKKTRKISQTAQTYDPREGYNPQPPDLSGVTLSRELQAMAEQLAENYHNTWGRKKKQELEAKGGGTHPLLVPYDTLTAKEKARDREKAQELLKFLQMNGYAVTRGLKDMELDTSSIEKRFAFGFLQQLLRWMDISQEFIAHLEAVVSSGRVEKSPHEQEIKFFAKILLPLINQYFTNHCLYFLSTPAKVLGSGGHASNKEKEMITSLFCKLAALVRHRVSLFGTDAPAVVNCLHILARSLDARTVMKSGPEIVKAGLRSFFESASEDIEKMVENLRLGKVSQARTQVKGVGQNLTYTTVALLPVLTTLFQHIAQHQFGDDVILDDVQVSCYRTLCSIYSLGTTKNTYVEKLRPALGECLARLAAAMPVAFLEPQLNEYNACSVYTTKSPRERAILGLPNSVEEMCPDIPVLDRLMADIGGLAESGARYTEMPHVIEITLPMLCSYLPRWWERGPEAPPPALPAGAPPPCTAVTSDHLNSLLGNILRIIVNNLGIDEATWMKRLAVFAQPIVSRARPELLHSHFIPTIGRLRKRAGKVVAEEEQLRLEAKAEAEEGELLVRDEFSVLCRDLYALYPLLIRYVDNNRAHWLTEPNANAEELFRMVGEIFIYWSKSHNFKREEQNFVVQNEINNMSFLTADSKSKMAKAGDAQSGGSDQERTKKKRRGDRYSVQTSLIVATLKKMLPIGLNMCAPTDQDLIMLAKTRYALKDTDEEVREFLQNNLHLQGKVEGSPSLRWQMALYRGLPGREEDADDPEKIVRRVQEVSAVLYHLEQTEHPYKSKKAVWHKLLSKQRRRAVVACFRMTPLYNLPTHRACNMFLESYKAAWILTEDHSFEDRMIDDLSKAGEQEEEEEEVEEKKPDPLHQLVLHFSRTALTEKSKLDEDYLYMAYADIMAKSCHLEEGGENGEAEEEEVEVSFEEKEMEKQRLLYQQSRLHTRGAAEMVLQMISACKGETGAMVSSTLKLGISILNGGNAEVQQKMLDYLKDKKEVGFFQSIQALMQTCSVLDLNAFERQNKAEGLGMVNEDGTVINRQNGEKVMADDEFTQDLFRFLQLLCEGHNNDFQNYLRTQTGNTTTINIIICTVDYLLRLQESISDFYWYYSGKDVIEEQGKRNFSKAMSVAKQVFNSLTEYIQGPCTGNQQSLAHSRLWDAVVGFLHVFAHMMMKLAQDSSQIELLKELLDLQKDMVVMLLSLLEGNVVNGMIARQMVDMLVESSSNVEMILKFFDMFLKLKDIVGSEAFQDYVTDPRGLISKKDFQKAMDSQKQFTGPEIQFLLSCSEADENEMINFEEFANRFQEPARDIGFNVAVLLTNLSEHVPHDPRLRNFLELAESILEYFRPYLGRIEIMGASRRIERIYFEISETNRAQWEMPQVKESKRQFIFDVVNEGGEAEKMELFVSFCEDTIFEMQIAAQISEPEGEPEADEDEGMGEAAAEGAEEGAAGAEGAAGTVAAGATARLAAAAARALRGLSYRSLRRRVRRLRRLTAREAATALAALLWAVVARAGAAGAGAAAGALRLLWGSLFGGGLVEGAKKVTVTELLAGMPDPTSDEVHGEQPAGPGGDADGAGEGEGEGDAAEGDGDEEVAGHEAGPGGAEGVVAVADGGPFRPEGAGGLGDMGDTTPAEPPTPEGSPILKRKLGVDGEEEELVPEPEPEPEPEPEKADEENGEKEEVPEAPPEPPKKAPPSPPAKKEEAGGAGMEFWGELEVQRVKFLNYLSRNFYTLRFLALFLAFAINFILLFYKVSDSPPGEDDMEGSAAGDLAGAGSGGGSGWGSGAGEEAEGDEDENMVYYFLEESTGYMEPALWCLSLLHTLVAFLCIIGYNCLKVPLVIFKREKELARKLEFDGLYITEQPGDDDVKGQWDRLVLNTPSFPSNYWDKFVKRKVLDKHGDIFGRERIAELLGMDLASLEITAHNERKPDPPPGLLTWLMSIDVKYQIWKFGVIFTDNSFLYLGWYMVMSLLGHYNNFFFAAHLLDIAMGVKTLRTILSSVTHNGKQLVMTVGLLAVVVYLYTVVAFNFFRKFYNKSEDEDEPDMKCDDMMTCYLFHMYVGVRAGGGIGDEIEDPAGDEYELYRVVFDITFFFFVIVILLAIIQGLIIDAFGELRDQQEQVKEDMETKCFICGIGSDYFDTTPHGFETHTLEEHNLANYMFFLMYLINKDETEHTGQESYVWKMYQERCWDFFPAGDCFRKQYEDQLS

## Oc1cccc(Br)c1 [3-BP, 3-bromophenol]
[1]
  intracellular calcium assay in HEK 293 stable cell lines; selective over M4000F,: 3-bromophenol (3-BP) has higher selectivity for RyR1(WT) than RyR1(M4000F), RyR2, or RyR3

## Oc1ccc(Br)cc1 [4-BP, 4-bromophenol]
[2]
  EC50: 4.7 µM

## Cc1cc(O)ccc1Cl [4-CmC, 4-chloro-m-cresol]
[3]
  intracellular calcium assay in HEK 293T cells with RyR1 WT and point mutants: substitution of phenylalanine with alanine (F4062A) substantially reduced the sensitivities to both 4-CmC and isoflurane

## CCc1ccc(O)cc1 [4-EP, 4-ethylphenol]
[4]
  EC50: 24 µM

## Cc1ccc(O)cc1 [4-MP, 4-methylphenol]
[4]
  EC50: 31 µM
[5]
  intracellular calcium assay in HEK 293 cells; selectivity over M4000F: 4-methylphenol (4-MP) and 4-ethylphenol (4-EP), phenolic chemicals with a methyl or ethyl residue

## Cn1c(=O)c2c(ncn2C)n(C)c1=O [caffeine]
[6]
  intracellular calcium assay in HEK 293 cells; caffeine-site point mutants: RyR1(W4716I), RyR1(W4716L), and RyR1(F3753A) were insensitive to caffeine but were activated by isoflurane

## FC(F)(F)C(Cl)Br (centres unmarked) [halothane]
[7]
  EC50: 288 µM

## FC(F)OC(Cl)C(F)(F)F (centres unmarked) [isoflurane]
Mouse RyR1(WT)
  intracellular calcium assay in HEK 293 cells; response lost in M4003F: mouse RyR1(WT) was sensitive to isoflurane, as expected, whereas mouse RyR1(M4003F) was not activated by isoflurane
[8]
  EC50: 203 µM

## FCOC(C(F)(F)F)C(F)(F)F [sevoflurane]
[9]
  intracellular calcium assay in HEK 293 stable cell line; response lost in M4000F: sevoflurane, an inhaled anesthetic with clinical use, activated RyR1 but not RyR2 and RyR3
